# Results taken from EP0503203A1, “Novel thrombin inhibitors” (MERRELL DOW PHARMACEUTICALS INC., priority 1991, dated 1992).
# Legend:
# human plasma [1] = experiment: Anticoagulant effect in human plasma, thrombin time (TT); type: biochemical
# Description: (§1) Anticoagulant data may be represented as follows:
# HUMAN LUNG TRYPTASE = experiment: Inhibition of tryptase, progress curve analysis; type: biochemical; conditions: non-linear regression (ENZFITTER)
# Description: Using standard in vitro methodology for determining inhibitory activity of tryptase (Journal of Biological Chemistry, Vol. 261, June 5, pp. 7372-7379, 1986), the following results have been obtained.
# human plasma [2] = experiment: Anticoagulant effect in human plasma, activated partial thromboplastin time (aPTT); type: biochemical
# Description: as §1
# rats = experiment: FeCl₃-induced thrombosis model in rats; type: in vivo; conditions: intravenously 10 mg/kg of body weight injection, followed by continuous 1 mg/kg/minute infusion, 4 rats
# Description: In vivo anti-thrombotic effects in rats may also be utilized for evaluation. […] Of course, actual dosage and frequency will vary dependent upon the nature and severity of the condition, age, general health conditions and such other factors well known and appreciated by the skilled attending diagnostician.
kon (HUMAN LUNG TRYPTASE) [M⁻¹ s⁻¹],Compound,ID₂ TT (amount required for doubling the clotting time) (human plasma [1]) [µM],ID₂ aPTT (amount required for doubling the clotting time) (human plasma [2]) [µM],occlusion (rats)
200 ± 10,"CN[C@H](Cc1ccccc1)C(=O)N1CCC[C@H]1C(=O)NC(CCCNC(=N)N)C(=O)C(F)(F)F (stereo partly drawn) [D-CH₃Phe-Pro-Arg-CF₃, N-Methyl-D-phenylalanyl-N[4-(aminoiminomethyl)amino-1-(trifluoroacetyl)butyl]-L-proline amide]",108,218,
1200 ± 40,"N=C(N)NCCCC(NC(=O)[C@@H]1CCCN1C(=O)[C@H](N)Cc1ccccc1)C(=O)C(F)(F)C(F)(F)F (stereo partly drawn) [D-Phe-Pro-Arg-CF₂CF₃, D-phenylalanyl-N-[4-(aminoiminomethyl)amino]-1-(pentafluoropropionylbutyl]-L-prolineamide, 1.5 HF, O.5 CH₃CO₂H, 3H₂O]",1,2,preventing occlusion in two rats and prolonging occlusion in the other 2 of the 4 rats
370 ± 40,N=C(N)NCCCC(NC(=O)[C@@H]1CCCN1C(=O)[C@H](N)Cc1ccccc1)C(=O)C(F)(F)F (stereo partly drawn) [D-Phe-Pro-Arg-CF₃],43,148,
